The test system of experiment [1] is 22Rv1 cells. Put plainly: Cell proliferation assay (CellTiter-Glo, 5-day exposure), 22Rv1. It is filed as cell-based. To be noted: 22Rv1, 1000 cells/well, Th-227 labelled at 375 kBq/nmol, mean of 1 to 6 experiments. A digest of the protocol: (§1)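 CellTiter-Glo luminescence, day 0 (sister plates) vs day 5 of exposure to Th-227-labelled PSMA ligands. Seeding: VCaP 4000 cells/well; 22Rv1, C4-2, LNCaP 1000 cells/well; overnight 37 °C, 5% CO2 before treatment.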

The subject of experiment [2] is VCaP cells. Put plainly: Cell proliferation assay (CellTiter-Glo, 5-day exposure), VCaP. It is filed as cell-based. The settings on record: 4000 cells/well, Th-227 labelled at 375 kBq/nmol, mean of 1 to 6 experiments. The essentials: as §1
Experiment [3] deals with LNCaP cells. Put plainly: Cell proliferation assay (CellTiter-Glo, 5-day exposure), LNCaP. The format is cell-based, human. The settings on record: LNCaP, 1000 cells/well; Th-227 labelled at 375 kBq/nmol; 5-day exposure; mean of 1 to 6 experiments. On the procedure:
Inhibition of cell proliferation of Thorium-227 labeled PMSA SMOL ligands was tested different prostate cancer cell lines, namely 22Rv1, VCaP, C4-2 (all from ATCC, Manassas, Va., USA) and LNCaP (DMSZ, Braunschweig). Cells were seeded using the following conditions in 384 well plates (Corning) in 30 μl of growth media at 4000 cells/well for VCaP cells and 1000 cells/well for 22Rv1, C4-2 and LNCaP cells.
Cells were cultivated an incubator at 37° C. and 5% C02 over night. On the following days cells were treated in triplicates with serial dilutions of PSMA-SMOLs labeled with Th-227 at a specific activity of 375 kBq/nmol (RCP>70% as assessed by iTLC analysis; compounds where RCP was between 50-70% in individual experiments are marked with an * in the table) using a D300e Digital Dispenser (Tecan). In sister plates cell viability at treatment start (d=0) was determined using CellTiter-Glo® assay (CTG, Promega, Madison, Wis., USA), by adding 30 μl per well CTG solution, incubation for 10 min and reading of Luminescence in a PheraStarFSX instrument (BMG Labtech). After a 5-day exposure in the presenced of test compounds, cell viability of treated or untreated control cells was determined again using CellTiter-Glo® assay (Promega, Madison, Wis., USA). […] The DRC software is a Biobook Spreadsheet that was developed by Bayer AG and Bayer Business Services on the IDBS E-Workbook Suite platform (IDBS: ID Business Solutions Ltd., Guildford, UK).

The subject of experiment [4] is C4-2 cells. Put plainly: Cell proliferation assay (CellTiter-Glo, 5-day exposure), C4-2. The format is cell-based. To be noted: C4-2, 1000 cells/well, Th-227 labelled at 375 kBq/nmol, mean of 1 to 6 experiments. The essentials:
as §1

Experiment [5] addresses T1, PSMA-expressing LNCaP cells (Homo sapiens, UniProt Q04609).
T1 construct: PSMA-expressing LNCaP cells; endogenous in cells; host or cells: LNCaP
Put plainly: Internalization assay (membrane bound and internalized Th-227). It is filed as cell-based. The settings on record: 10 nM radiolabeled compound, Th-227 at 375 kBq/nmol, triplicates; for Internalized in LNCaP fmol/10^6 cells 30 min / Membrane bound in LNCaP fmol/10^6 cells 30 min: 30 min incubation; for Internalized in LNCaP fmol/10^6 cells 2 h / Membrane bound in LNCaP fmol/10^6 cells 2 h: 2 h incubation. On the procedure: For internalization assays 24 well plates (#3526, Corning) were coated with 200 μl Poly-L-Lysine (0.1 mg/ml, #3438-100-01, Fa. Cultrex) per well for 2 h at 37° C. […] Cells were incubated at 37° C. and 5% CO2 over night. On the following day 400 μl of the media were removed and a total of 200 μl growth medium added supplemented with PSMA-SMOLs labeled with Th-227 at 375 kBq/nmol in triplicates. Radiochemical purity of the labeling was analyzed by instant thin layer chromatography and found to be above 70% for all compounds used. The final concentration of radiolabeled SMOLs was in the test wells was 10 nM. Cells were incubated for 30 min or 2 h. After the incubation time supernatants were taken off and cells washed with PBS. Thereafter cells were washed twice with 0.2 ml 50 mM Glycine-HCl buffer (#55097, Sigma Aldrich) and once with PBS and the washing solutions combined in counting vials (#TK75-018, Fa. Corning) and subjected to gamma counting (1470 Wizard automatic gamma counter, Wallac). The resulting counts were attributed to membrane bound radioactivity. Cells were then lysed with 500 μl 0.3N NaOH (#181691.1211, Fa. PanReac AppliChem ITW Reagents) followed by another wash with 500 μl PBS. The NaOH lysate as well as the final wash were combined in vials and subjected to gamma counting as described above. Measured radioactivity was attributed to internalized fraction. Results were calculated as fmol of Th-227 per/10^cells in the membrane bound and internalized fractions from triplicate values.

T1 sequence (Q04609 whole entry): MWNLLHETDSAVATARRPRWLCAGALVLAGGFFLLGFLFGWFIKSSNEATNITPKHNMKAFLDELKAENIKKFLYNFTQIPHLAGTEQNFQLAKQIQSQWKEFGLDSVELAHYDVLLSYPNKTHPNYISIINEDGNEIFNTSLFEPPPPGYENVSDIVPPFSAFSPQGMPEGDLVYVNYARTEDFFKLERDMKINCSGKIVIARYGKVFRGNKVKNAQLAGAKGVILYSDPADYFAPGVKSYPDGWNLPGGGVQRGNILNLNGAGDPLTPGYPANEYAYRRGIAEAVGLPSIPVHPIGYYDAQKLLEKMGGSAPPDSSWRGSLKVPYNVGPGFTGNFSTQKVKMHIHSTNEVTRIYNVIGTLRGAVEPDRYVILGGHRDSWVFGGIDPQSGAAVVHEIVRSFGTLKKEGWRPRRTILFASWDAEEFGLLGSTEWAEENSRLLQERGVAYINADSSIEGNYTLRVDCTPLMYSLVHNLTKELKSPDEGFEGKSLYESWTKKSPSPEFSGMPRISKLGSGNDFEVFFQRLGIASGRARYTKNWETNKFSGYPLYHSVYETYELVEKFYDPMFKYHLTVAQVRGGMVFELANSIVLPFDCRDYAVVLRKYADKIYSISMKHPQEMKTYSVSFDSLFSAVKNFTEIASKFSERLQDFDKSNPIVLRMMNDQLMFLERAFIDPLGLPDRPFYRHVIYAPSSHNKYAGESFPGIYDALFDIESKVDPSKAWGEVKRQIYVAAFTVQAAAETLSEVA

In the case of `Cc1cc(C(=O)NCCN(CCCN(CCNC(=O)c2cc(C)n(CC(=O)NCc3ccc(C(=O)N[C@@H](Cc4ccc5ccccc5n4)C(=O)NCCCC[C@H](NC(=O)N[C@@H](CCC(=O)O)C(=O)O)C(=O)O)nc3)c(=O)c2[O-])CCNC(=O)c2cc(C)n(CC(=O)NCc3ccc(C(=O)N[C@@H](Cc4ccc5ccccc5n4)C(=O)NCCCC[C@H](NC(=O)N[C@@H](CCC(=O)O)C(=O)O)C(=O)O)nc3)c(=O)c2[O-])CCNC(=O)c2cc(C)n(CC(=O)NCc3ccc(C(=O)N[C@@H](Cc4ccc5ccccc5n4)C(=O)NCCCC[C@H](NC(=O)N[C@@H](CCC(=O)O)C(=O)O)C(=O)O)nc3)c(=O)c2[O-])c([O-])c(=O)n1CC(=O)NCc1ccc(C(=O)N[C@@H](Cc2ccc3ccccc3n2)C(=O)NCCCC[C@H](NC(=O)N[C@@H](CCC(=O)O)C(=O)O)C(=O)O)nc1.[227Th+4]` [34-C tetramer-227Th], in experiment [1], the “Proliferation assay on cancer cell lines by TTCs Default Pivot #3 IC50 [kBq/mL] 22Rv1 1000cells 375kBq/nmol (mean)” value was determined as 1.34 kBq/mL. The “Proliferation assay on cancer cell lines by TTCs Default Pivot #3 IC50 [kBq/mL] VCap 4000cells 375kBq/nmol (mean)” value in experiment [2] stood at 1.96 kBq/mL. The “Proliferation assay on cancer cell lines by TTCs Default Pivot #3 IC50 [kBq/mL] LnCap 1000cells 375kBq/nmol (mean)” value in experiment [3] was determined as 0.03 kBq/mL. The “Proliferation assay on cancer cell lines by TTCs Default Pivot #3 IC50 [kBq/mL] C4-2 1000cells 375kBq/nmol (mean)” value in experiment [4] was 1.55 kBq/mL. Also, in experiment [5], the “Internalized in LNCaP fmol/10^6 cells 30 min” value came out at 117 fmol/10^6 cells, the “Membrane bound in LNCaP fmol/10^6 cells 30 min” value stood at 82 fmol/10^6 cells, the “Internalized in LNCaP fmol/10^6 cells 2 h” value turned out to be 315 fmol/10^6 cells and the “Membrane bound in LNCaP fmol/10^6 cells 2 h” value came out at 183 fmol/10^6 cells.
Take `Cn1ccc2c(c1=O)[O][Th]13[O]c4c(ccn(C)c4=O)C(=O)NCCN(CCNC2=O)CC(Cc2ccc(NC(=O)CCC(=O)N[C@H](CCCNC(=N)N)C(=O)N[C@H](CCCNC(=N)N)C(=O)NC[C@H]4CC[C@H](C(=O)N[C@@H](Cc5ccc6ccccc6c5)C(=O)NCCCC[C@H](NC(=O)N[C@@H](CCC(=O)O)C(=O)O)C(=O)O)CC4)cc2)CN(CCNC(=O)c2ccn(C)c(=O)c2[O]1)CCNC(=O)c1ccn(C)c(=O)c1[O]3` (stereo partly shown) [Example 46-E-227Th]: in experiment [1], the “Proliferation assay on cancer cell lines by TTCs Default Pivot #3 IC50 [kBq/mL] 22Rv1 1000cells 375kBq/nmol (mean)” value was found to be 0.68 kBq/mL. For the same molecule, the “Proliferation assay on cancer cell lines by TTCs Default Pivot #3 IC50 [kBq/mL] VCap 4000cells 375kBq/nmol (mean)” value in experiment [2] is given as 1.37 kBq/mL. The “Proliferation assay on cancer cell lines by TTCs Default Pivot #3 IC50 [kBq/mL] LnCap 1000cells 375kBq/nmol (mean)” value in experiment [3] is given as 0.18 kBq/mL. Further, the “Proliferation assay on cancer cell lines by TTCs Default Pivot #3 IC50 [kBq/mL] C4-2 1000cells 375kBq/nmol (mean)” value in experiment [4] is reported as 0.95 kBq/mL. Besides, in experiment [5], the “Internalized in LNCaP fmol/10^6 cells 30 min” value worked out at 34 fmol/10^6 cells, the “Membrane bound in LNCaP fmol/10^6 cells 30 min” value is 63 fmol/10^6 cells, the “Internalized in LNCaP fmol/10^6 cells 2 h” value is reported as 104 fmol/10^6 cells and the “Membrane bound in LNCaP fmol/10^6 cells 2 h” value is given as 234 fmol/10^6 cells.

The record behind these values is US20230072421A1, “TARGETED RADIOPHARMACEUTICALS FOR THE DIAGNOSIS AND TREATMENT OF PROSTATE CANCER” (Bayer AS, priority 2019, published 2023).
